The source made the active and inactive calls. No cut-off for these calls is given here. Some results are limits rather than exact numbers.

The subject of one experiment is U-937. The experiment in a line: Cytotoxicity against human U937 cells. It counts as ADME, cell-based.
In turn, `O=C1Nc2c(Br)cccc2C1=O` showed an IC50 of 83 µM.
As for `O=C1Nc2ccc([N+](=O)[O-])cc2C1=O` [5-NITROISATIN], it took 132 µM to reach half-maximal inhibition (IC50).
`CN1C(=O)C(=O)c2ccccc21`: the IC50 amounted to 238 µM.
As for `O=C1Nc2c(cc(Br)cc2[N+](=O)[O-])C1=O`, the IC50 was 257 µM.
In turn, `O=C1Nc2cc(Br)c(Br)cc2C1=O` yielded an IC50 of 11.6 µM.
`O=C1Nc2ccccc2C1=O` [ISATIN] showed a 50% inhibitory concentration (IC50) of 565 µM. This IC50 lies about 49-fold higher than the previous one.
Still for that read-out and setting: to `O=C1Nc2cccc(Br)c2C1=O` belongs 214 µM; to `O=C1Nc2c(Br)cc([N+](=O)[O-])cc2C1=O`, over 369 µM; to `O=C1Nc2ccc(F)cc2C1=O` [5-FLUOROISATIN], 98.4 µM.
Turning to `O=C1Nc2c(Br)cc(Br)cc2/C1=N/c1ccccc1`, the half-maximal inhibitory concentration (IC50) is 13.7 µM.
In turn, `O=C1Nc2ccc(I)cc2C1=O` [5-IODOISATIN] registered an IC50 of 53.4 µM.
On to `COc1ccc2c(c1)C(=O)C(=O)N2` [5-METHOXYISATIN], for which it took 420 µM to reach half-maximal inhibition (IC50).
Consider `O=C1Nc2c(cc(Br)c(Br)c2Br)C1=O`, for which the IC50 was 6.76 µM. Against the preceding compound, the IC50 is about 62-fold lower.
Consider `Oc1[nH]c2ccccc2c1/N=N/c1ccccc1`, for which the IC50 was over 211 µM.
Compound `O=C1Nc2ccc(Br)cc2C1=O` displayed an IC50 of 64.5 µM.
In turn, `O=C1Nc2cc(Br)c([N+](=O)[O-])cc2C1=O` registered a half-inhibitory concentration (IC50) of 17.1 µM.
The compound `O=C1Nc2c(I)cc(I)cc2C1=O` returned an IC50 of 7.85 µM.
For the compound `O=C1Nc2cc(Br)ccc2C1=O`, inhibition was half-maximal at 74.8 µM (IC50).

Another experiment concerns Jurkat. The experiment in a line: Cytotoxicity against human Jurkat cells. It counts as cell-based.
`O=C1Nc2cc(Br)c(Br)cc2C1=O` displayed an IC50 of 20.2 µM.
On the same count and under the same terms, to `O=C1Nc2c(cc(Br)c(Br)c2Br)C1=O` belongs 5.8 µM.
`O=C1Nc2c(I)cc(I)cc2C1=O` returned an IC50 of 20.9 µM. Compared with the last compound, the IC50 is about 3.6-fold higher.

The test system of a further experiment is PC-3. The experiment in a line: Cytotoxicity against human PC3 cells. It counts as cell-based.
`O=C1Nc2cc(Br)c(Br)cc2C1=O` returned a half-maximal inhibitory concentration (IC50) of 41 µM.
Turning to `O=C1Nc2c(cc(Br)c(Br)c2Br)C1=O`, the IC50 was determined as 25.9 µM.
In the case of `O=C1Nc2c(I)cc(I)cc2C1=O`, the IC50 turned out to be 71.9 µM.

The test system of the next experiment is MDA-MB-231. The experiment in a line: Cytotoxicity against human MDA-MB-231 cells. It counts as cell-based.
The compound `O=C1Nc2cc(Br)c(Br)cc2C1=O` came in with an IC50 of 41.7 µM. That is a double-digit micromolar value.
For `O=C1Nc2c(cc(Br)c(Br)c2Br)C1=O`, the IC50 is 21.8 µM.
Regarding `O=C1Nc2c(I)cc(I)cc2C1=O`, the IC50 was determined as 41.8 µM.

The target in the next experiment is T1, Caspase-3 (Homo sapiens) (UniProt P42574).
T1 sequence (whole entry): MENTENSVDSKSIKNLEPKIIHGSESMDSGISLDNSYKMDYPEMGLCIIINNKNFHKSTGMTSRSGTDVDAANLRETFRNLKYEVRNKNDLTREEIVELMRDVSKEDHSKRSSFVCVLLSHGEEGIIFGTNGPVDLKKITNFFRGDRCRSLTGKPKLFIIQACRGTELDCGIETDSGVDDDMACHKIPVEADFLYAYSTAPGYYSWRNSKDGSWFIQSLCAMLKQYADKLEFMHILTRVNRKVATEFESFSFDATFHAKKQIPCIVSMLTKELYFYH
The experiment in a line: Activation of caspase 3 in Jurkat cells after 5 hr by apoptosis assay. It counts as cell-based.
With `O=C1Nc2c(cc(Br)c(Br)c2Br)C1=O`, the outcome was Active.

For a further experiment, the system named is HCT-116. The experiment in a line: Cytotoxicity against human HCT116 cells. It counts as cell-based.
On to `O=C1Nc2cc(Br)c(Br)cc2C1=O`, for which half-maximal inhibition (IC50) required 37.3 µM.
As for `O=C1Nc2c(cc(Br)c(Br)c2Br)C1=O`, the concentration for half-maximal inhibition (IC50) came to 15.9 µM.
`O=C1Nc2c(I)cc(I)cc2C1=O` returned an IC50 of 24 µM.

In another experiment the target is Cyclin-dependent kinase 2 (Homo sapiens) (UniProt P24941). The experiment in a line: Inhibition of CDK2 at 100 uM.
`O=C1Nc2c(Br)cc(Br)cc2C1=O` gave an inhibition of 44%.

Another experiment relates to MCF7. The experiment in a line: Cytotoxicity against human MCF7 cells. It counts as cell-based.
The compound `O=C1Nc2cc(Br)c(Br)cc2C1=O` displayed an IC50 of 20.2 µM.
In turn, `O=C1Nc2c(cc(Br)c(Br)c2Br)C1=O` showed an IC50 of 13.3 µM.
Take `O=C1Nc2c(I)cc(I)cc2C1=O`: the IC50 came to 18.4 µM.

The target of another experiment is T2, Caspase-7 (Homo sapiens) (UniProt P55210).
T2 sequence (whole entry): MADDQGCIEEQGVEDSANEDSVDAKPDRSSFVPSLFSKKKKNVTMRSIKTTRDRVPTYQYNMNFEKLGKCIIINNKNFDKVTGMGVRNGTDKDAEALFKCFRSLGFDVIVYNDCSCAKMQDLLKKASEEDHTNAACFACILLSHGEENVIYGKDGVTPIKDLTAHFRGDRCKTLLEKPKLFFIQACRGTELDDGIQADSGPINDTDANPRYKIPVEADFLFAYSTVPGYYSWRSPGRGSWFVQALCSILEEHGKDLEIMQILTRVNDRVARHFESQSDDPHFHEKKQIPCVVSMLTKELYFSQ
The experiment in a line: Activation of caspase 7 in Jurkat cells after 5 hrs by apoptosis assay. It counts as cell-based.
Regarding `O=C1Nc2c(cc(Br)c(Br)c2Br)C1=O`, the result was Active.

The values above are taken from ChEMBL document CHEMBL1144554, “In vitro cytotoxicity evaluation of some substituted isatin derivatives” (Bioorg Med Chem, 2007).
